Source: paper doi:10.64898/2025.12.27.696692v1, “A coelenterazine-dependent luciferase from the deep-sea coral Anthoptilum murrayi Kölliker, 1880 (Cnidaria: Octocorallia: Pennatulacea)” (biorxiv, 2025)

Tested on: T1, AnmLuc (recombinant Anthoptilum murrayi luciferase)
T1 construct: codon-optimised, pET-28a(+), N-terminal His6 (no cleavage told); E. coli ArcticExpress (DE3), Ni-NTA
Experiment: luminometry, Michaelis-Menten nonlinear fit
Format: biochemical
Settings: 50 mM sodium phosphate pH 7.5, 25 °C; coelenterazine 0.04–50 µM

## Oc1ccc(Cc2nc3c(Cc4ccccc4)nc(-c4ccc(O)cc4)cn3c2O)cc1 [coelenterazine]
  Km: 3.39 µM
